The experiment deals with 648629-189-R-J1-PDC complex spheroids viability. Kind of experiment: Anticancer human tumor 648629-189-R-J1-PDC patient-derived bladder carcinoma cell line growth inhibition [CLK]. The conditions noted are these: for viability, T/C: stronger effect = lower value. A digest of the protocol: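 Patient-derived tumor cells grown as complex spheroids with HUVEC endothelial cells and mesenchymal stem cells, treated with drug combinations. Concentrations descend in half-log steps from near clinical Cmax, or from 10 microM if Cmax unknown.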

Where [1] appears, read: curve of first compound, second compound 0.0316 µM.
[2] abbreviates: curve of first compound, second compound 0.1 µM.
Setting [3] is: curve of first compound, second compound 0.316 µM.
Setting [4] is: curve of first compound, second compound 1 µM.
Where [5] appears, read: curve of first compound, second compound 3.16 µM.
The mark [6] stands for this setting: curve of first compound, second compound 10 µM.
The mark [7] stands for this setting: second compound 0.0316 µM, first compound 0.0316 µM.
The mark [8] stands for this setting: second compound 0.0316 µM, first compound 0.1 µM.
[9] abbreviates: second compound 0.0316 µM, first compound 0.316 µM.
The mark [10] stands for this setting: second compound 0.0316 µM, first compound 1 µM.
The mark [11] stands for this setting: second compound 0.0316 µM, first compound 3.16 µM.
Setting [12] is: second compound 0.0316 µM, first compound 10 µM.
[13] abbreviates: second compound 0.1 µM, first compound 0.0316 µM.
[14] abbreviates: second compound 0.1 µM, first compound 0.1 µM.
[15] abbreviates: second compound 0.1 µM, first compound 0.316 µM.
[16] abbreviates: second compound 0.1 µM, first compound 1 µM.
The mark [17] stands for this setting: second compound 0.1 µM, first compound 3.16 µM.
Where [18] appears, read: second compound 0.1 µM, first compound 10 µM.
Where [19] appears, read: second compound 0.316 µM, first compound 0.0316 µM.
The mark [20] stands for this setting: second compound 0.316 µM, first compound 0.1 µM.
Where [21] appears, read: second compound 0.316 µM, first compound 0.316 µM.
[22] abbreviates: second compound 0.316 µM, first compound 1 µM.
Where [23] appears, read: second compound 0.316 µM, first compound 3.16 µM.
[24] abbreviates: second compound 0.316 µM, first compound 10 µM.
Setting [25] is: second compound 1 µM, first compound 0.0316 µM.
Where [26] appears, read: second compound 1 µM, first compound 0.1 µM.
Setting [27] is: second compound 1 µM, first compound 0.316 µM.
Where [28] appears, read: second compound 1 µM, first compound 1 µM.
[29] abbreviates: second compound 1 µM, first compound 3.16 µM.
The mark [30] stands for this setting: second compound 1 µM, first compound 10 µM.
The mark [31] stands for this setting: second compound 3.16 µM, first compound 0.0316 µM.
The mark [32] stands for this setting: second compound 3.16 µM, first compound 0.1 µM.
Setting [33] is: second compound 3.16 µM, first compound 0.316 µM.
The mark [34] stands for this setting: second compound 3.16 µM, first compound 1 µM.
[35] abbreviates: second compound 3.16 µM, first compound 3.16 µM.
[36] abbreviates: second compound 3.16 µM, first compound 10 µM.
Setting [37] is: second compound 10 µM, first compound 0.0316 µM.
Setting [38] is: second compound 10 µM, first compound 0.1 µM.
The mark [39] stands for this setting: second compound 10 µM, first compound 0.316 µM.
Where [40] appears, read: second compound 10 µM, first compound 1 µM.
The mark [41] stands for this setting: second compound 10 µM, first compound 3.16 µM.
Where [42] appears, read: second compound 10 µM, first compound 10 µM.

Where “and” joins values, the source holds several entries; their conditions need not be identical. Equal entries are not always repeated.
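For viability, T/C in this document: drug exposure lasted seven days before viability readout; 100% = DMSO vehicle control wells.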

In the case of `CC(CO)NC(=O)c1cc(-c2ccc(Cl)cc2)nn(-c2cnn(C)c2)c1=O` (stereo unspecified), the viability, T/C was 103% and 108% (compound 0.0316 µM); 96.4% and 90.6% (compound 0.1 µM); 95.2% and 95.5% (compound 0.316 µM); 96.3% and 98.4% (compound 1 µM); 88.3% and 117% (compound 3.16 µM); 86.7% and 92.5% (compound 10 µM). In addition, the half-maximal inhibitory concentration (IC50) (curve of compound) is above 10 µM.

For the compound `CCCS(=O)(=O)Nc1ccc(F)c(C(=O)c2c[nH]c3ncc(-c4ccc(Cl)cc4)cc23)c1F`, the viability, T/C by setting is: (compound 0.0316 µM) 99.7% and 107%; (compound 0.1 µM) 97% and 82.6%; (compound 0.316 µM) 98.6% and 98.2%; (compound 1 µM) 104% and 93.3%; (compound 3.16 µM) 108% and 90%; (compound 10 µM) 32.9% and 19.8%. Moreover, where the note is “curve of compound”, the IC50 is 7.51 µM and 6.09 µM.

With `CC(Nc1ccc2c(c1)OCCn1cc(N3C(=O)OCC3C(F)F)nc1-2)C(N)=O` (stereo unspecified), the viability, T/C is 106% and 92.8% (compound 0.0316 µM); 99.8% and 111% (compound 0.1 µM); 89% and 83.4% (compound 0.316 µM); 82.8% and 76.1% (compound 1 µM); 54.4% and 56.5% (compound 3.16 µM); 38.2% and 46.5% (compound 10 µM). In addition, the IC50 (curve of compound) was 4.86 µM and 6.82 µM.

Regarding `COc1ccc([C@@H](O)c2cc(-c3ncnc4cc(N5CCOCC5)ccc34)c(F)cc2Cl)nn1`, the viability, T/C was 92.5% and 93.4% (compound 0.0316 µM); 94.4% and 108% (compound 0.1 µM); 94.7% and 89.7% (compound 0.316 µM); 75.6% and 85% (compound 1 µM); 74.8% and 70% (compound 3.16 µM); 40.1% and 39.5% (compound 10 µM). Under “curve of compound”, the IC50 was 7.05 µM and 6.68 µM.

Regarding `COc1cccc2c1C(=O)c1c(O)c3c(c(O)c1C2=O)CC(O)(C(=O)CO)CC3OC1CC(N)C(O)C(C)O1` (stereo unspecified), the viability, T/C is, setting by setting: (compound 0.0316 µM) 32.3% and 23%; (compound 0.1 µM) 16.2%; (compound 0.316 µM) 7.93% and 6.42%; (compound 1 µM) 0.61% and 0.54%; (compound 3.16 µM) 0.12% and 0.15%; (compound 10 µM) 0.13% and 0.14%. Further, under “curve of compound”, the IC50 is below 0.0316 µM.

Take `CC(CO)NC(=O)c1cc(-c2ccc(Cl)cc2)nn(-c2cnn(C)c2)c1=O` (stereo unspecified) + CNC(=O)c1ccc(Nc2nc(OC3CCCC3)c3c(-c4ccc5nc(C)oc5c4)c[nH]c3n2)c(OC)c1: the IC50 was above 10 µM under setting [1]; above 10 µM under setting [2]; below 0.0316 µM under setting [3]; below 0.0316 µM under setting [4]; below 0.0316 µM under setting [5]; below 0.0316 µM under setting [6]. The viability, T/C by setting is: under setting [7], 99.5%; under setting [8], 92.6%; under setting [9], 117%; under setting [10], 104%; under setting [11], 88.9%; under setting [12], 88.5%. The viability, T/C reads like this: under setting [13], 90.9%; under setting [14], 87.7%; under setting [15], 90.3%; under setting [16], 76.9%; under setting [17], 90.9%; under setting [18], 82.8%. Besides, the viability, T/C was 31.1% under setting [19]; 28.2% under setting [20]; 29.3% under setting [21]; 30.2% under setting [22]; 26.8% under setting [23]; 21.7% under setting [24]. For the same compound, the viability, T/C reads like this: under setting [25], 16.6%; under setting [26], 19.7%; under setting [27], 18.5%; under setting [28], 18.8%; under setting [29], 22.5%; under setting [30], 18.8%. The viability, T/C under setting [31] is 18%; the viability, T/C under setting [32] is 21.2%; the viability, T/C under setting [33] is 16.1%; the viability, T/C under setting [34] is 23%; the viability, T/C under setting [35] was 20.8%; the viability, T/C under setting [36] was 17.9%. Further, the viability, T/C is 18.7% under setting [37]; 20.2% under setting [38]; 19.5% under setting [39]; 21.6% under setting [40]; 19.2% under setting [41]; 19.3% under setting [42].

For the compound `C=CC(=O)N1CCN(c2nc(=O)n(-c3c(C)ccnc3C(C)C)c3nc(-c4c(O)cccc4F)c(F)cc23)C(C)C1` (stereo unspecified) + CN1CCN(c2cc(C(=O)Nc3cc4cc(-c5cnn(C)c5)ccc4cn3)ccn2)CC1, the 50% inhibitory concentration (IC50) is, setting by setting: under setting [1], above 10 µM; under setting [2], above 10 µM; under setting [3], 1.03 µM; under setting [4], below 0.0316 µM; under setting [5], below 0.0316 µM; under setting [6], below 0.0316 µM. Further, the viability, T/C by setting is: under setting [7], 109%; under setting [8], 113%; under setting [9], 104%; under setting [10], 115%; under setting [11], 108%; under setting [12], 89%. In addition, the viability, T/C was 89.6% under setting [13]; 99.5% under setting [14]; 99.4% under setting [15]; 114% under setting [16]; 98.9% under setting [17]; 102% under setting [18]. Also, the viability, T/C by setting is: under setting [19], 47.3%; under setting [20], 55.5%; under setting [21], 50.5%; under setting [22], 50.4%; under setting [23], 38%; under setting [24], 20.2%. The viability, T/C is 0.58% under setting [25]; 0.57% under setting [26]; 0.3% under setting [27]; 0.5% under setting [28]; 0.34% under setting [29]; 0.13% under setting [30]. Moreover, the viability, T/C by setting is: under setting [31], 0.13%; under setting [32], 0.17%; under setting [33], 0.14%; under setting [34], 0.13%; under setting [35], 0.11%; under setting [36], 0.11%. Also, the viability, T/C is 0.15% under setting [37]; 0.19% under setting [38]; 0.16% under setting [39]; 0.18% under setting [40]; 0.22% under setting [41]; 0.15% under setting [42].

For `Nc1ccccc1NC(=O)c1ccc(CNC(=O)OCc2cccnc2)cc1`, the viability, T/C was 115% and 88% (compound 0.0316 µM); 92.5% and 91.6% (compound 0.1 µM); 88.5% and 77.7% (compound 0.316 µM); 72.7% and 64% (compound 1 µM); 33% and 24.8% (compound 3.16 µM); 4.51% and 3.32% (compound 10 µM). Also, under “curve of compound”, the 50% inhibitory concentration (IC50) is 1.95 µM and 1.46 µM.

By viability, T/C is commonly meant the ratio of treated to control. Usually IC50 stands for the concentration needed to halve the response being measured.

The record behind these values is PubChem BioAssay AID2060602 (Molecular Pharmacology Branch, DTP, NCI, 2025).
